# Several values for one entry are separate records, joined by “and”; a condition that tells them apart may be missing. Equal entries are not always repeated. Entries after “also recorded” stand apart in the source; their conditions may differ. Where two headings read alike, the source gives them in different places.
# Experiments:
# R478A DXP synthase [1] = biological target: T1, R478A DXP synthase (Escherichia coli, UniProt P77488, R478A); format: biochemical, E. coli; conditions: for Km: R478A, coupled assay, 37 °C
# Y392F DXP synthase [2] = biological target: T2, Y392F DXP synthase (Escherichia coli, UniProt P77488, Y392F); format: biochemical, E. coli; conditions: for Km: Y392F, coupled assay, 37 °C
# wild type DXP synthase [3] = biological target: T3, wild type DXP synthase (Escherichia coli, UniProt P77488); assay: Substrate binding by intrinsic total protein fluorescence; parameters: species or system E. coli
# Y392F DXP synthase [4] = biological target: T2, Y392F DXP synthase; assay: as above; parameters: species or system E. coli
# R478A DXP synthase [5] = biological target: T1, R478A DXP synthase; assay: biochemical; format: binding, E. coli
# R420A DXP synthase [6] = biological target: T4, R420A DXP synthase (Escherichia coli, UniProt P77488, R420A); assay: biochemical; format: binding, E. coli
# Y392F DXP synthase [7] = biological target: T2, Y392F DXP synthase; assay: CD titration with pyruvate; format: binding, E. coli
# wild type DXP synthase [8] = biological target: T3, wild type DXP synthase; conditions: cited from earlier work
# wild type DXP synthase [9] = biological target: T3, wild type DXP synthase; conditions: read-out: Kd^pyruvate (apparent), CD spectroscopy; cited from earlier work
# wild type DXP synthase [10] = biological target: T3, wild type DXP synthase; assay: DX product formation from pyruvate and D-glyceraldehyde; format: biochemical, E. coli; conditions: 30 mM D-glyceraldehyde and 5 mM pyruvate, 8 °C
# wild type DXP synthase [11] = biological target: T3, wild type DXP synthase; conditions: 30 mM D-glyceraldehyde, 8 °C
# R478A DXP synthase [12] = biological target: T1, R478A DXP synthase; format: biochemical, E. coli
# R420A DXP synthase [13] = biological target: T4, R420A DXP synthase; assay: Steady-state DXP formation monitored by CD at 290 nm; format: biochemical, E. coli; conditions: 37 °C, D-GAP 0.25 – 2 mM, 1 mM pyruvate
# Y392F DXP synthase [14] = biological target: T2, Y392F DXP synthase; format: biochemical, E. coli; conditions: CD at 290 nm, 37 °C
# R478A DXP synthase [15] = biological target: T1, R478A DXP synthase; format: binding, E. coli; conditions: D-GAP up to 15 mM
# R420A DXP synthase [16] = biological target: T4, R420A DXP synthase; assay: Substrate binding by intrinsic total protein fluorescence; parameters: species or system E. coli; conditions: D-GAP up to 15 mM
# R478A DXP synthase [17] = biological target: T1, R478A DXP synthase; format: biochemical, E. coli; conditions: 6 °C, from pyruvate and D-GAP
# Y392F DXP synthase [18] = biological target: T2, Y392F DXP synthase; format: biochemical, E. coli; conditions: 6 °C, from pyruvate and D-GAP
# wild type DXP synthase [19] = biological target: T3, wild type DXP synthase; conditions: 6 °C; cited from earlier work
# R478A DXP synthase [20] = biological target: T1, R478A DXP synthase; conditions: − D-GAP, 6 °C, single turnover
# R420A DXP synthase [21] = biological target: T4, R420A DXP synthase; conditions: − D-GAP, 6 °C, single turnover
# Y392F DXP synthase [22] = biological target: T2, Y392F DXP synthase; conditions: − D-GAP, 6 °C, single turnover
# R478A DXP synthase [23] = biological target: T1, R478A DXP synthase; conditions: + D-GAP (2 mM in second syringe), 6 °C
# R420A DXP synthase [24] = biological target: T4, R420A DXP synthase; conditions: + D-GAP (2 mM in second syringe), 6 °C
# Y392F DXP synthase [25] = biological target: T2, Y392F DXP synthase; conditions: + D-GAP (200 μM in second syringe), 6 °C
# wild type DXP synthase [26] = biological target: T3, wild type DXP synthase; conditions: − D-GAP, 6 °C; cited from earlier work
# wild type DXP synthase [27] = biological target: T3, wild type DXP synthase; conditions: 6 °C, cited from earlier work
compound,measurement,setting,value
CC(=O)C(=O)O [pyruvate],Km,R478A DXP synthase [1]; read-out: Km^pyruvate,54 ± 7 µM
same,increase in Km^pyruvate compared to wild type,Y392F DXP synthase [2]; Y392F vs wild type,1.5 fold
same,Km,Y392F DXP synthase [2]; read-out: Km^pyruvate,73 ± 4 µM
same,Kd,wild type DXP synthase [3],230 ± 70 µM
same,Kd,Y392F DXP synthase [4],230 ± 60 µM
same,Kd,R478A DXP synthase [5],80 ± 30 µM
same,Hill coefficient nH for pyruvate,"R478A DXP synthase [5]; R478A, CD, 5 °C",1.0 ± 0.2
same,Kd,R420A DXP synthase [6],37 ± 8 µM
same,Hill coefficient nH for pyruvate,"R420A DXP synthase [6]; R420A, CD, 5 °C",1.2 ± 0.3
same,Kd,Y392F DXP synthase [7],113 µM
same,Km,"wild type DXP synthase [8]; read-out: Km^pyruvate, wild type",49 ± 8 µM
same,Kd,wild type DXP synthase [9],89.4 µM
"CC(=O)[C@@H](O)[C@H](O)CO [DX, 1-deoxy-D-xylulose]","overall rate of DX product formation, k4",wild type DXP synthase [10],1.15 ± 0.7 s⁻¹
same,"overall rate of DX product formation, k4′",wild type DXP synthase [10],0.5 ± 0.2 s⁻¹
O=C[C@H](O)CO [D-glyceraldehyde],"rate of LThDP decarboxylation promoted with D-glyceraldehyde, k2",wild type DXP synthase [11],21.5 ± 0.2 s⁻¹ and 21 s⁻¹
"O=C[C@H](O)COP(=O)(O)O [D-GAP, D-glyceraldehyde 3-phosphate]",increase in Km^D-GAP compared to wild type DXP synthase,R478A DXP synthase [1]; R478A vs wild type,70 fold
same,Km,R478A DXP synthase [1]; read-out: Km^D-GAP,1600 ± 300 µM
same,decrease in kcat/Km^D-GAP compared to wild type,Y392F DXP synthase [2]; Y392F vs wild type,near eight-fold decrease
same,Km,Y392F DXP synthase [2]; read-out: Km^D-GAP,210 ± 20 µM
same,Hill coefficient nH for D-GAP,"R478A DXP synthase [12]; CD at 290 nm, 37 °C",1.1 ± 0.1
same,Km,"R478A DXP synthase [12]; read-out: Km^D-GAP, CD at 290 nm, 37 °C, D-GAP 0.15 – 2 mM, 1 mM pyruvate",530 ± 100 µM
same,saturation by D-GAP,R420A DXP synthase [13],saturation by D-GAP is not achieved; also recorded: Saturation was not achieved
same,Hill coefficient nH for D-GAP,Y392F DXP synthase [14],1.2 ± 0.1
same,Kd,wild type DXP synthase [3],2000 ± 500 µM
same,fluorescence quenching upon titration of D-GAP,R478A DXP synthase [15],quenching of fluorescence was not observed; also recorded: negligible changes in fluorescence
same,fluorescence quenching upon titration of D-GAP,R420A DXP synthase [16],negligible changes in fluorescence; also recorded: quenching of fluorescence was not observed
same,Km,wild type DXP synthase [8]; read-out: Km^D-GAP,23.5 ± 1.7 µM
"CC(=O)[C@@H](O)[C@H](O)COP(=O)(O)O [DXP, 1-deoxy-D-xylulose 5-phosphate]","Formation of DXP, k4 (faster phase)",R478A DXP synthase [17],0.78 ± 0.08 s⁻¹
same,"Formation of DXP, k4′ (slower phase)",R478A DXP synthase [17],0.26 ± 0.02 s⁻¹
same,"Formation of DXP, k4 (faster phase)",Y392F DXP synthase [18],1.34 ± 0.12 s⁻¹
same,"Formation of DXP, k4′ (slower phase)",Y392F DXP synthase [18],0.34 ± 0.01 s⁻¹
same,"Formation of DXP, k4′ (slower phase)",wild type DXP synthase [19],0.29 ± 0.01 s⁻¹
"Cc1ncc(C[n+]2c(C(C)(O)C(=O)O)sc(CCOP(=O)(O)OP(=O)(O)O)c2C)c(N)n1 (stereo not drawn) [LThDP, C2α-lactylthiamin diphosphate]","Formation of LThDP, k1 (faster phase)",R478A DXP synthase [20],0.85 ± 0.03 s⁻¹
same,"Formation of LThDP, k1′ (slower phase)",R478A DXP synthase [20],0.29 ± 0.02 s⁻¹
same,"Formation of LThDP, k1 (faster phase)",R420A DXP synthase [21],1.24 ± 0.01 s⁻¹
same,"Formation of LThDP, k1′ (slower phase)",R420A DXP synthase [21],0.28 ± 0.002 s⁻¹
same,"Formation of LThDP, k1 (faster phase)",Y392F DXP synthase [22],1.06 ± 0.03 s⁻¹
same,"Formation of LThDP, k1′ (slower phase)",Y392F DXP synthase [22],0.3 ± 0.01 s⁻¹
same,"D-GAP-promoted LThDP Decarboxylation, k2",R478A DXP synthase [23],k2 = 36.5 ± 1.1 s^−1
same,"Formation of LThDP (re-synthesis), k1",R478A DXP synthase [23],k1 = 0.84 ± 0.004 s^−1
same,"Formation of LThDP (re-synthesis), k1",R420A DXP synthase [24],k1 = 0.67 ± 0.003 s^−1
same,"Formation of LThDP (re-synthesis), k1",Y392F DXP synthase [25],k1 = 0.82 ± 0.01 s^−1
same,"Formation of LThDP, k1 (faster phase)",wild type DXP synthase [26],1.39 ± 0.05 s⁻¹
same,"Formation of LThDP, k1′ (slower phase)",wild type DXP synthase [26],0.16 ± 0.02 s⁻¹
same,"LThDP Decarboxylation, k2",wild type DXP synthase [26],k2 = 0.07 ± 0.006 s^−1
same,"D-GAP-promoted LThDP Decarboxylation, k2",wild type DXP synthase [27],k2 = 42.0 ± 1.0 s^−1
same,"Formation of LThDP (re-synthesis), k1",wild type DXP synthase [27]; + D-GAP,k1 = 0.68 ± 0.01 s^−1
